Values of other authors in patent publication US20210401766A1, “Method of Using Cannabinoids Encapsulated in Phospholipid Carriers for Transmucosal and Transdermal Administration” (NuVessl, Inc., priority 2018, published 2021).

SMILES: C=C(C)[C@@H]1CCC(C)=C[C@H]1c1c(O)cc(CCCCC)cc1O [CBD, Cannabidiol]
- Duration of effects (oral administration): 5 to 8 h
- Bioavailability (oromucosal): approximately 35%
- Bioavailability (average) (smoking and vaporizing): around 40%
- Bioavailability (range) (smoking and vaporizing): 2%-56%
- Length of time CBD remains in the body (smoking and vaporizing): around 3 hours
